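Compound exposure: 48 hours, 5 concentrations, 96-well plates. TGI: concentration producing complete growth inhibition.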
What was measured:
Assay in all cases: NCI anticancer screen, dose series, 48 h
786-0 renal = test system: 786-0 renal
A498 renal = test system: A498 renal
A549 NSCLC = test system: A549 NSCLC
ACHN renal = test system: ACHN renal
BT-549 breast = test system: BT-549 breast
CAKI-1 renal = test system: CAKI-1 renal
DU-145 prostate = test system: DU-145 prostate
EKVX NSCLC = test system: EKVX NSCLC
HCC-2998 colon = test system: HCC-2998 colon
HCT-116 colon = test system: HCT-116 colon
HCT-15 colon = test system: HCT-15 colon
HL-60(TB) leukemia = test system: HL-60(TB) leukemia
HOP-62 NSCLC = test system: HOP-62 NSCLC
HOP-92 NSCLC = test system: HOP-92 NSCLC
HS 578T breast = test system: HS 578T breast
HT29 colon = test system: HT29 colon
IGROV1 ovarian = test system: IGROV1 ovarian
K-562 leukemia = test system: K-562 leukemia
KM12 colon = test system: KM12 colon
LOX IMVI melanoma = test system: LOX IMVI melanoma
M14 melanoma = test system: M14 melanoma
MALME-3M melanoma = test system: MALME-3M melanoma
MDA-MB-231 breast = test system: MDA-MB-231 breast
MDA-MB-435 = test system: MDA-MB-435
MDA-N = test system: MDA-N
MOLT-4 leukemia = test system: MOLT-4 leukemia
NCI-H226 lung = test system: NCI-H226 lung
NCI-H23 lung = test system: NCI-H23 lung
NCI-H460 lung = test system: NCI-H460 lung
NCI-H522 lung = test system: NCI-H522 lung
NCI/ADR-RES ovarian = test system: NCI/ADR-RES ovarian
OVCAR-3 ovarian = test system: OVCAR-3 ovarian
OVCAR-4 ovarian = test system: OVCAR-4 ovarian
OVCAR-5 ovarian = test system: OVCAR-5 ovarian
OVCAR-8 ovarian = test system: OVCAR-8 ovarian
PC-3 prostate = test system: PC-3 prostate
RXF 393 renal = test system: RXF 393 renal
SF-268 CNS = test system: SF-268 CNS
SF-295 CNS = test system: SF-295 CNS
SK-MEL-2 melanoma = test system: SK-MEL-2 melanoma
SK-MEL-28 melanoma = test system: SK-MEL-28 melanoma
SK-MEL-5 melanoma = test system: SK-MEL-5 melanoma
SN12C renal = test system: SN12C renal
SNB-19 CNS = test system: SNB-19 CNS
SR leukemia = test system: SR leukemia
SW-620 colon = test system: SW-620 colon
T-47D breast = test system: T-47D breast
TK-10 renal = test system: TK-10 renal
U251 CNS = test system: U251 CNS
UACC-257 melanoma = test system: UACC-257 melanoma
UACC-62 melanoma = test system: UACC-62 melanoma
UO-31 renal = test system: UO-31 renal
CCRF-CEM leukemia = test system: CCRF-CEM leukemia
COLO 205 colon = test system: COLO 205 colon
MCF7 breast = test system: MCF7 breast
RPMI-8226 leukemia = test system: RPMI-8226 leukemia
SF-539 CNS = test system: SF-539 CNS
SK-OV-3 ovarian = test system: SK-OV-3 ovarian
SNB-75 CNS = test system: SNB-75 CNS

Which TGI (786-0 renal) does the source give for `O=C(O)Cc1cc(O)c(CC(=O)O)cc1O` here?
The TGI was over 100 µM.

And the TGI (A498 renal)?
The TGI was over 100 µM.

And the TGI (A549 NSCLC)?
The TGI was over 100 µM.

And the TGI (ACHN renal)?
The TGI was over 100 µM.

What about the TGI (BT-549 breast) of the same compound?
The TGI was over 100 µM.

And the TGI (CAKI-1 renal)?
The TGI was over 100 µM.

And the TGI (DU-145 prostate)?
The TGI was over 100 µM.

What about the TGI (EKVX NSCLC) of the same compound?
Its TGI is over 100 µM.

And the TGI (HCC-2998 colon)?
The TGI was over 100 µM.

And the TGI (HCT-116 colon)?
The TGI was over 100 µM.

What about the TGI (HCT-15 colon) of the same compound?
Its TGI is over 100 µM.

And the TGI (HL-60(TB) leukemia)?
Its TGI is over 100 µM.

And the TGI (HOP-62 NSCLC)?
The TGI was over 100 µM.

And the TGI (HOP-92 NSCLC)?
Its TGI is over 100 µM.

What about the TGI (HS 578T breast) of the same compound?
The TGI was over 100 µM.

What about the TGI (HT29 colon) of the same compound?
Its TGI is over 100 µM.

What about the TGI (IGROV1 ovarian) of the same compound?
Its TGI is over 100 µM.

What about the TGI (K-562 leukemia) of the same compound?
The TGI was over 100 µM.

And the TGI (KM12 colon)?
The TGI was over 100 µM.

And the TGI (LOX IMVI melanoma)?
The TGI was over 100 µM.

And the TGI (M14 melanoma)?
Its TGI is over 100 µM.

And the TGI (MALME-3M melanoma)?
The TGI was over 100 µM.

What about the TGI (MDA-MB-231 breast) of the same compound?
Its TGI is over 100 µM.

And the TGI (MDA-MB-435)?
The TGI was over 100 µM.

What about the TGI (MDA-N) of the same compound?
Its TGI is over 100 µM.

What about the TGI (MOLT-4 leukemia) of the same compound?
The TGI was over 100 µM.

What about the TGI (NCI-H226 lung) of the same compound?
Its TGI is over 100 µM.

What about the TGI (NCI-H23 lung) of the same compound?
Its TGI is over 100 µM.

And the TGI (NCI-H460 lung)?
Its TGI is over 100 µM.

And the TGI (NCI-H522 lung)?
Its TGI is over 100 µM.

What about the TGI (NCI/ADR-RES ovarian) of the same compound?
Its TGI is over 100 µM.

And the TGI (OVCAR-3 ovarian)?
Its TGI is over 100 µM.

And the TGI (OVCAR-4 ovarian)?
Its TGI is over 100 µM.

And the TGI (OVCAR-5 ovarian)?
The TGI was over 100 µM.

What about the TGI (OVCAR-8 ovarian) of the same compound?
The TGI was over 100 µM.

What about the TGI (PC-3 prostate) of the same compound?
Its TGI is over 100 µM.

And the TGI (RXF 393 renal)?
Its TGI is over 100 µM.

What about the TGI (SF-268 CNS) of the same compound?
Its TGI is over 100 µM.

And the TGI (SF-295 CNS)?
The TGI was over 100 µM.

And the TGI (SK-MEL-2 melanoma)?
Its TGI is over 100 µM.

And the TGI (SK-MEL-28 melanoma)?
The TGI was over 100 µM.

And the TGI (SK-MEL-5 melanoma)?
The TGI was over 100 µM.

What about the TGI (SN12C renal) of the same compound?
The TGI was over 100 µM.

And the TGI (SNB-19 CNS)?
Its TGI is over 100 µM.

And the TGI (SR leukemia)?
The TGI was over 100 µM.

And the TGI (SW-620 colon)?
Its TGI is over 100 µM.

What about the TGI (T-47D breast) of the same compound?
The TGI was over 100 µM.

What about the TGI (TK-10 renal) of the same compound?
Its TGI is over 100 µM.

What about the TGI (U251 CNS) of the same compound?
Its TGI is over 100 µM.

And the TGI (UACC-257 melanoma)?
Its TGI is over 100 µM.

And the TGI (UACC-62 melanoma)?
Its TGI is over 100 µM.

And the TGI (UO-31 renal)?
The TGI was over 100 µM.

For `O=C1C=CC=C/C1=C1\N=C(c2ccccc2OCC(=O)c2ccc(Br)cc2)SS1`, which TGI (786-0 renal) is on record?
Its TGI is over 100 µM.

What about the TGI (A498 renal) of the same compound?
The TGI was over 100 µM.

And the TGI (A549 NSCLC)?
Its TGI is over 100 µM.

What about the TGI (ACHN renal) of the same compound?
Its TGI is over 100 µM.

What about the TGI (BT-549 breast) of the same compound?
Its TGI is 62.9 µM.

And the TGI (CAKI-1 renal)?
The TGI was over 100 µM.

What about the TGI (CCRF-CEM leukemia) of the same compound?
Its TGI is over 100 µM.

And the TGI (COLO 205 colon)?
The TGI was over 100 µM.

What about the TGI (DU-145 prostate) of the same compound?
Its TGI is over 100 µM.

And the TGI (EKVX NSCLC)?
The TGI was over 100 µM.

What about the TGI (HCC-2998 colon) of the same compound?
Its TGI is over 100 µM.

What about the TGI (HCT-116 colon) of the same compound?
Its TGI is over 100 µM.

And the TGI (HCT-15 colon)?
The TGI was over 100 µM.

What about the TGI (HL-60(TB) leukemia) of the same compound?
The TGI was over 100 µM.

What about the TGI (HOP-62 NSCLC) of the same compound?
The TGI was 24 µM.

What about the TGI (HOP-92 NSCLC) of the same compound?
Its TGI is over 100 µM.

And the TGI (HS 578T breast)?
Its TGI is 76.2 µM.

And the TGI (HT29 colon)?
Its TGI is over 100 µM.

And the TGI (IGROV1 ovarian)?
The TGI was 71.3 µM.

And the TGI (K-562 leukemia)?
The TGI was over 100 µM.

And the TGI (KM12 colon)?
Its TGI is over 100 µM.

What about the TGI (LOX IMVI melanoma) of the same compound?
The TGI was over 100 µM.

What about the TGI (M14 melanoma) of the same compound?
The TGI was over 100 µM.

And the TGI (MALME-3M melanoma)?
Its TGI is over 100 µM.

What about the TGI (MCF7 breast) of the same compound?
The TGI was over 100 µM.

And the TGI (MDA-MB-435)?
The TGI was over 100 µM.

What about the TGI (MDA-N) of the same compound?
The TGI was over 100 µM.

What about the TGI (NCI-H226 lung) of the same compound?
The TGI was over 100 µM.

What about the TGI (NCI-H23 lung) of the same compound?
The TGI was over 100 µM.

What about the TGI (NCI-H460 lung) of the same compound?
Its TGI is over 100 µM.

And the TGI (NCI/ADR-RES ovarian)?
Its TGI is over 100 µM.

And the TGI (OVCAR-3 ovarian)?
The TGI was over 100 µM.

And the TGI (OVCAR-4 ovarian)?
The TGI was over 100 µM.

What about the TGI (OVCAR-5 ovarian) of the same compound?
The TGI was over 100 µM.

What about the TGI (OVCAR-8 ovarian) of the same compound?
Its TGI is over 100 µM.

And the TGI (PC-3 prostate)?
The TGI was over 100 µM.

And the TGI (RPMI-8226 leukemia)?
Its TGI is over 100 µM.

And the TGI (RXF 393 renal)?
The TGI was over 100 µM.

What about the TGI (SF-268 CNS) of the same compound?
The TGI was over 100 µM.

What about the TGI (SF-295 CNS) of the same compound?
Its TGI is over 100 µM.

And the TGI (SF-539 CNS)?
The TGI was over 100 µM.

And the TGI (SK-MEL-2 melanoma)?
Its TGI is over 100 µM.

And the TGI (SK-MEL-28 melanoma)?
The TGI was over 100 µM.

What about the TGI (SK-MEL-5 melanoma) of the same compound?
Its TGI is over 100 µM.

What about the TGI (SK-OV-3 ovarian) of the same compound?
Its TGI is over 100 µM.

And the TGI (SN12C renal)?
Its TGI is over 100 µM.

And the TGI (SNB-19 CNS)?
Its TGI is over 100 µM.

What about the TGI (SNB-75 CNS) of the same compound?
The TGI was 44.5 µM.

And the TGI (SW-620 colon)?
The TGI was over 100 µM.

And the TGI (T-47D breast)?
The TGI was over 100 µM.

And the TGI (TK-10 renal)?
Its TGI is over 100 µM.

What about the TGI (U251 CNS) of the same compound?
The TGI was over 100 µM.

What about the TGI (UACC-257 melanoma) of the same compound?
The TGI was over 100 µM.

What about the TGI (UACC-62 melanoma) of the same compound?
The TGI was over 100 µM.

What about the TGI (UO-31 renal) of the same compound?
Its TGI is over 100 µM.

— PubChem BioAssay (NCI)
